# Several values for one entry are separate records, joined by “and”; a condition that tells them apart may be missing. Equal values may be shown once. Marks after values point to notes of the source that are not given here. Ends that are not written are not given here.
# Assays:
# [1] = system: IL-6 secretion from hCBMC; assay: IL-6 secretion from human cord blood-derived mast cells (hCBMC), ELISA; assay type: cell-based; conditions: for secretion of IL-6 (FIG. 3): n=4
# Method: (§1) Human cord blood-derived mast cells (HCBMC) were grown from CD34+ progenitor mononuclear umbilical cells isolated from umbilical cord blood by positive selection of AC133 (CD 133+/CD34+high) cells by magnetic cell sorting (Miltenyi Biotec, Auburn, Calif.). CD34+ cells were then cultured in Isocove's Modified Dulbecco's Medium (1MDM) containing 100 ng/ml Stem Cell Factor (from Amgen, Thousand Oaks, Calif.) plus test components in 10% FBS at 37° C. in 5% CO2 balanced air. By 10 weeks, 95% of the cells in culture could be identified as mast cells by immuno-staining for tryptase. hCBMC were washed three times in PBS and resuspended in culture medium (1×10^5 cells/200 ul sample). Test substances, e.g., IL-1 were added and cells were incubated at 37° C. in 5% CO2 for six hours for dose-response experiments or for the indicated times in time-course experiments. IL-6 and tryptase were measured in cell-free supernatant fluids by ELISA (R&D Systems, Minneapolis, Minn.) and fluoroenzymeimmunoassay (Pharmacia, Uppsala, Sweden), respectively.
# (§2) Dose-response of IL-6 and tryptase secretion from hCBMC and HMC-1 cells were tested after stimulation for six hours with indicated concentrations of IL-1 or other stimuli. Time-course of IL.6 production induced by 50 ng/ml of IL-1 a from CBMC or by 10 ng/ml IL-1 from HMC-1 cells could be tested.
# The data in general represent means +/− standard error of the mean from 3 to 4 experiments done in duplicate for each cell type used.
# [2] = system: IL-6 production from rat peritoneal macrophages; assay: IL-6 production from LPS-stimulated rat peritoneal macrophages; assay type: cell-based; conditions: rat macrophages stimulated by LPS; quercetin dihydrate 100 μM, 10 mins prior to stimulus, 6 hrs
# Text: (§3) In this experiment, the effect of quercetin on the production of IL-6 and TNF-a from rat peritoneal macrophages and human mast cells that are involved in inflammation was studied. [table]
# [3] = system: TNF-α production from rat peritoneal macrophages; assay: TNF-α production from LPS-stimulated rat peritoneal macrophages; assay type: cell-based; conditions: rat macrophages stimulated by LPS; quercetin dihydrate 100 μM, 10 mins prior to stimulus, 6 hrs
# Text: as §3
# [4] = system: TNF-α production from human mast cells (hCBMC); assay: TNF-α production from hCBMC stimulated by IgE and anti-IgE; assay type: cell-based; conditions: quercetin dihydrate 100 μM, 10 mins prior to stimulus, 6 hrs
# Text: as §3
# [5] = system: IL-6 secretion from human mast cells; assay: IL-6 production and secretion from human mast cells, quercetin alone or with IL-1; assay type: cell-based
# Method: as §1
# In this experiment, the effects of quercetin, alone or together with IL-1, on the production and secretion of IL-6 from human mast cells was studied.
# [6] = system: IL-6 secretion from HMC-1 cells; assay: IL-6 secretion from HMC-1 human leukemic mast cells; assay type: cell-based; conditions: quercetin 10 μM, IL-10 2 ng/ml
# Method: Human leukemic mast cells (HMC-1) was obtained from Dr. Butterfield (Mayo Clinic, Rochester, Minn.), and cultured in IMDM medium supplemented with 10% FBS, PBS and 2 μM alpha.thioglycerol. HCBMC or HMC-I cells 2×10^5/200 μl sample were stimulated in full culture medium as indicated.
# as §2
# The effect of IL-10 on HMC-1 leukemic cells producing IL-6, especially cells stimulated by IL-1 that induces selective release of IL-6, was studied alone or together with a flavonoid compound.
# [7] = system: tryptase secretion from hCBMC; assay: Tryptase secretion from hCBMC mast cell granules, fluoroenzymeimmunoassay; assay type: cell-based, human; conditions: stimulus alone: CRH 5 × 10^−5M, IL-1 50 ng/ml, anti-IgE 10 μg/ml
# Method: as §1
# Dose-response of IL-6 and tryptase secretion from hCBMC and HMC-1 cells were tested after stimulation for six hours with indicated concentrations of IL-1 or other stimuli. Time-course of IL.6 production induced by 50 ng/ml of IL-1 a from CBMC or by 10 ng/ml IL-1 from HMC-1 cells could be tested. […]
# [8] = hCBMC + anti-IgE, azelastine 1 μM, quercetin 10 μM
# [9] = hCBMC, substance alone: anti-IgE, azelastine 1 μM, quercetin 10 μM
# [10] = IL-1 50 ng/ml + quercetin 10 μM
# [11] = IL-1 50 ng/ml + quercetin 100 μM
# [12] = HMC-1, substance alone: IL-1 50 ng/ml
molecule,measurement,setting,value
"CN1CCCC(n2nc(Cc3ccc(Cl)cc3)c3ccccc3c2=O)CC1 (centres unmarked) [Azelastine, reference compound]",inhibition of IL-6 secretion from hCBMC,[1]; azelastine at concentrations below 1 μM,ineffective
same,IL-6 (pg/ml/5 × 105cells),[1]; [8],30.6 pg/ml/5 × 105cells
same,inhibition of IL-6 secretion from hCBMC (FIG. 4),"[1]; hCBMC + anti-IgE, dose-dependent",potent inhibitor
same,IL-6 secretion (FIG. 4),"[1]; hCBMC, azelastine 60 μM",below control levels
same,IL-6 (pg/ml/5 × 105cells),[1]; [9],11.9 pg/ml/5 × 105cells
"O=c1c(O)c(-c2ccc(O)cc2O)oc2cc(O)cc(O)c12 [Morin, reference compound]",secretion of IL-6 (FIG. 3),"[1]; hCBMC + anti-IgE, morin (100-0.01 μM listed)",only a small effect
"O=c1c(O)c(-c2ccc(O)c(O)c2)oc2cc(O)cc(O)c12 [Quercetin, quercetin]",Inhibition (% of total) IL-6,[2],96.3 % of total
same,Inhibition (% of total) TNF-α,[3],88.3 % of total
same,IL-6 (pg/ml/5 × 105cells),[1]; [8],21.4 pg/ml/5 × 105cells
same,Inhibition (% total),[1]; [8],32.9 % total
same,secretion of IL-6 (FIG. 3),"[1]; hCBMC + anti-IgE, three lower concentrations of quercetin (1, 0.1, 0.01 μM)",only slightly reduced
same,secretion of IL-6 (FIG. 3),"[1]; hCBMC + anti-IgE, two highest concentrations of quercetin (100, 10 μM)",greatly reduced
same,Inhibition (% of total) IL-6,"[1]; hCBMC stimulated by IgE and anti-IgE, quercetin dihydrate 100 μM, 10 mins prior to stimulus, 6 hrs",95.8 % of total
same,secretion of IL-6 from mast cells stimulated by anti-IgE,"[1]; hCBMC, 0.1 mM quercetin 30 mins, then anti-IgE 6 hrs, replicated 6 times",profoundly inhibited
same,IL-6 (pg/10^6 cells),"[1]; hCBMC, quercetin 0.1 mM alone, no anti-IgE",10.8 pg/10^6 cells
same,IL-6 (pg/10^6 cells),"[1]; hCBMC, quercetin 0.1 mM for 10 mins prior to addition of anti-IgE",50.5 pg/10^6 cells
same,IL-6 (pg/ml/5 × 105cells),[1]; [9],9.8 pg/ml/5 × 105cells
same,Inhibition (% of total) TNF-α,[4],78.3 % of total
same,IL-6 (pg/ml/5 × 10^5 cells),[5]; [10],300.1 pg/ml/5 × 10^5 cells
same,Inhibition (% total),[5]; [10],32.7* % total
same,IL-6 (pg/ml/5 × 10^5 cells),[5]; [11],150.4 pg/ml/5 × 10^5 cells
same,Inhibition (% total),[5]; [11],82.0* % total
same,IL-6 (pg/ml/5 × 10^5 cells),[5]; quercetin 10 μM alone,74.9 pg/ml/5 × 10^5 cells
same,IL-6 (pg/ml/5 × 10^5 cells),[5]; quercetin 100 μM alone,56.1 pg/ml/5 × 10^5 cells
same,IL-6 (pg/ml/10^5 cells),[6]; HMC-1 + IL-1 (50 ng/ml),299.0 pg/ml/10^5 cells
same,Inhibition (% total),[6]; HMC-1 + IL-1 (50 ng/ml),5.37 % total
same,IL-6 (pg/ml/10^5 cells),[6]; [12],79.8 pg/ml/10^5 cells
"CRH: corticotropin-releasing hormone (SEEPPISLDLTFHLLREVLEMARAEQLAQQAHSNRKLMEII; ends and bridges not checked; UniProt P06850 154-194, looked up)",IL-6 (pg/ml/5 × 10^6 cells),"[1]; hCBMC, stimulus alone: CRH 5 × 10^−5M, IL-1 50 ng/ml, anti-IgE 10 μg/ml",33.3 +/− 3.5 pg/ml/5 × 10^6 cells
same,Tryptase % total,[7],4.20 % total and 4.26 % total
"IL-10: interleukin-10 (protein, UniProt P22301 19-178, looked up) Interleukin-10: SPGQGTQSENSCTHFPGNLPNMLRDLRDAFSRVKTFFQMKDQLDNLLLKESLLEDFKGYLGCQALSEMIQFYLEEVMPQAENQDPDIKAHVNSLGENLKTLRLRLRRCHRFLPCENKSKAVEQVKNAFNKLQEKGIYKAMSEFDIFINYIEAYMTMKIRN",IL-6 (pg/ml/10^5 cells),[6]; HMC-1 + IL-1 (50 ng/ml),275.9 pg/ml/10^5 cells
same,Inhibition (% total),[6]; HMC-1 + IL-1 (50 ng/ml),31.32 % total
same,IL-6 (pg/ml/10^5 cells),[6]; [12],85.6 pg/ml/10^5 cells

# Reference: patent US20030229030A1, “Method of treating interleukin-6-mediated inflammatory diseases” (priority 2002, published 2003)
